{"source": "patent US8012971B2", "about": "“Therapeutic agent for chronic obstructive pulmonary disease” (Dainippon Sumitomo Pharma Co., Ltd., priority 2005, dated 2011)", "format_in_all_cases": "in vivo", "key": {"[1]": {"tested_on": "Guinea Pig Chronic Obstructive Pulmonary Disease (COPD) Model", "test": "Airway resistance (sRaw) in guinea pig COPD model (cigarette smoke exposure)", "conditions": "for Specific airway resistance (sRaw) % increase from pre value: 1 week of cigarette smoke exposure, mean ± SEM of 8 animals", "procedure": "(§1) An evaluation was carried out as follows according to a report of Kosuke MORIZUMI, Junichi FUCHIGAMI et al., 2002, The 75th Annual Meeting of the Japanese Pharmacological Society (2002) Abstract No. P-259, “Study of a chronic obstructive pulmonary disease-Effects of theophylline on respiratory function and lung function of guinea pigs in an exposure of cigarette smoke.”\n(§2) Male Hartley strain guinea pigs (purchased from Japan SLC, Inc.) were taken in a cigarette exposure holder (RMH-TUBES, manufactured by Muenster Ltd.) to secure them to an exposure chamber (Flow-past type nose-only inhalation chamber, manufactured by Muenster Ltd.), and allowed to inhale cigarette smoke (Hi-Lite, manufactured by Japan Tobacco Inc.) for 60 minutes per day for 5 days in a week, totally 4 weeks using a smoking exposure equipment (Hamburg II, manufactured by Borgwaldt Technik), while the exposure was carried out for 4 days in the 4th week. • (2) Drug Administrations\n(§3) Each 0.5% MC suspension of a test drug was orally administered daily in 5 ml/weight (kg) once a day for 25 days from the first day of the exposure. To a sham-exposure group and a control group was orally administered a 0.5% MC suspension in a similar manner. Any oral administrations were carried out 0.5 to 1 hours before exposures on a cigarette-smoke-exposure day or after measurements when measuring respiratory functions. A drug was not administered on the day for measurement of respiratory functions after finishing the 4th week of the exposure. • (3) Measurements of Airway Resistance\nSpecific airway resistances (sRaw) in guinea pigs were measured during awakening by double-flow plethysmography using general respiratory function analysis system (PULMOS-I, manufactured by M•I•P•S Corp.). Measurements were carried out before the exposure and on the day after finishing the 1st, 2nd, 3rd and 4th weeks of the exposure. Each 100 breathings of respiratory functions were individually measured, and the average values were obtained as measured values. A rate of change of airway resistances was calculated by the following equation. Rate of change of each measured week (%)=100×(a measured value on each measured date−a measured value before starting exposures of cigarette smoke)/a measured value before starting exposures of cigarette smoke"}, "[2]": {"tested_on": "Guinea Pig Chronic Obstructive Pulmonary Disease (COPD) Model", "test": "Lung functions (FRC, RV) in guinea pig COPD model", "conditions": "for Functional residual capacity (FRC) / Residual volume (RV): after 4th week of exposure, mean ± SEM of 8 animals", "procedure": "as §1, §2, §3\nAfter measuring airway resistances in the 4th week, animals were cut open their tracheas under urethane-anesthetizing ([…], i.p.), cannulated on the side of lung, fixed by ligation, and measured residual volumes (RV) and functional residual capacities (FRC) by lung functions measuring system (Biosystem for maneuver, manufactured by Buxco Electronics)."}, "[3]": {"tested_on": "Guinea Pig Chronic Obstructive Pulmonary Disease (COPD) Model", "test": "Inflammatory cells in bronchoalveolar fluid in guinea pig COPD model", "conditions": "for Cell number in BALF, Macrophage / Cell number in BALF, Neutrophil / Cell number in BALF, Total: mean ± SEM of 8 animals", "procedure": "as §1, §2, §3\nAfter measuring lung functions, animals were exsanguinated to death and opened the thorax, ligated the left bronchial bifurcation, and then injected saline (2.5 mL) into the right lung and aspirated the same via fixed cannula on measuring lung functions repeatedly in twice (totally 5 mL), and the recovery solution was obtained as a bronchoalveolar lavage fluid (BALF). BALF was centrifuged (230×g, 4° C., for 10 minutes) to give cell pellets. The pellets were suspended in saline (0.5 mL), and to a part of the suspension was added Turk solution (manufactured by Wako Pure Chemical Industries, Ltd.) so as to dilute 10 to 20 folds. Leukocyte numbers per 0.1 μL were measured by a blood cell counting chamber and leukocyte numbers per 1 μL were calculated. Cell suspensions were prepared again, smears were prepared using about 2000 to 3000 total cell numbers, May-Grunwald-Giemsa stain was carried out, leukocyte numbers were counted under the microscope, a ratio of each leukocyte number to total leukocyte number was obtained, and each cell number per 1 μL was calculated based on the ratio. Results are shown in each cell number per 1 μL."}, "[4]": {"tested_on": "Guinea Pig Chronic Obstructive Pulmonary Disease (COPD) Model", "test": "Histological investigations of lung in guinea pig COPD model", "conditions": "10 mg/kg/day for 25 days; 8 animals", "procedure": "as §1, §2, §3\nAfter collection of BALF, trachea and lung were isolated. The ligation site of the left lung was opened, injected neutral formalin buffer into trachea, bronchi and lung at the pressure of 20 cm H2O via cannula fixed on the side of the lung, and the lung tissue was extended to be fixed. According to a conventional method, tissue section samples were produced using posterior lobe of the left lung and hematoxylin-eosin (HE) stain was carried out. Any other lung tissues were stored in neutral formalin buffers. Drug efficacies of the produced tissue samples were evaluated by scoring tissue changes under the microscope. The criteria of scores were shown as follows: −: none, ±: minimal, +: mild, ++: moderate, +++: severe. Each quantification was calculated as 0, 1, 2, 3, 4."}, "[5]": {"conditions": "groups of 10 mg/kg and 30 mg/kg, result in words"}}}
{"smiles": "CNC(=O)NCCn1c(-c2ccc(N3CCOCC3)cc2)csc1=Nc1cccc(F)c1", "note": "[SMP-028, N-{2-[2-[(3-fluorophenyl)imino]-4-(4-morpholinophenyl)-thiazol-3(2H)-yl]ethyl}-N′-methylurea]", "values": [{"measurement": "Specific airway resistance (sRaw) % increase from pre value", "setting": "[1]; 10 mg/kg/day oral", "value": "25.54 ± 10.91", "unit": "%"}, {"measurement": "Specific airway resistance (sRaw) % increase from pre value", "setting": "[1]; 30 mg/kg/day oral", "value": "15.02 ± 4.07", "unit": "%"}, {"measurement": "increases of airway resistance by cigarette smoking stimulation", "setting": "[1]; [5]", "value": "tended to be suppressed"}, {"measurement": "Functional residual capacity (FRC)", "setting": "[2]; 10 mg/kg/day oral", "value": "7.213 ± 0.374 ^NS mL"}, {"measurement": "Residual volume (RV)", "setting": "[2]; 10 mg/kg/day oral", "value": "3.236 ± 0.537 ^NS mL"}, {"measurement": "Functional residual capacity (FRC)", "setting": "[2]; 30 mg/kg/day oral", "value": "7.066 ± 0.353 ^NS mL"}, {"measurement": "Residual volume (RV)", "setting": "[2]; 30 mg/kg/day oral", "value": "2.649 ± 0.649 ^NS mL"}, {"measurement": "increases of functional residual capacity (FRC) and residual volume (RV)", "setting": "[2]; [5]", "value": "tended to be suppressed"}, {"measurement": "Cell number in BALF, Macrophage", "setting": "[3]; 10 mg/kg/day oral", "value": "2506 ± 313 ^NS cells/μL"}, {"measurement": "Cell number in BALF, Neutrophil", "setting": "[3]; 10 mg/kg/day oral", "value": "1114 ± 193 ^NS cells/μL"}, {"measurement": "Cell number in BALF, Total", "setting": "[3]; 10 mg/kg/day oral", "value": "4044 ± 419 ^NS cells/μL"}, {"measurement": "Cell number in BALF, Macrophage", "setting": "[3]; 30 mg/kg/day oral", "value": "2497 ± 483 ^NS cells/μL"}, {"measurement": "Cell number in BALF, Neutrophil", "setting": "[3]; 30 mg/kg/day oral", "value": "772 ± 277 ^NS cells/μL"}, {"measurement": "Cell number in BALF, Total", "setting": "[3]; 30 mg/kg/day oral", "value": "3897 ± 783 ^NS cells/μL"}, {"measurement": "infiltrations of the inflammatory cells in the airway", "setting": "[3]; [5]", "value": "tended to be suppressed"}, {"measurement": "Number of animals with grade + (mild): A. Hyperplasia, epithelial cell, bronchus", "setting": "[4]", "value": 0}, {"measurement": "Number of animals with grade + (mild): B. Cellular exudation, neutrophil/eosinophil, lumen, bronchiole", "setting": "[4]", "value": 0}, {"measurement": "Number of animals with grade + (mild): C. Thickening, alveolar wall", "setting": "[4]", "value": 2}, {"measurement": "Number of animals with grade + (mild): D. Accumulation, foamy/macrophage-like cell, alveolus", "setting": "[4]", "value": 2}, {"measurement": "Number of animals with grade + (mild): E. Cellular infiltration, neutrophil, alveolus", "setting": "[4]", "value": 0}, {"measurement": "Number of animals with grade ++ (moderate): A. Hyperplasia, epithelial cell, bronchus", "setting": "[4]", "value": 0}, {"measurement": "Number of animals with grade ++ (moderate): B. Cellular exudation, neutrophil/eosinophil, lumen, bronchiole", "setting": "[4]", "value": 0}, {"measurement": "Number of animals with grade ++ (moderate): C. Thickening, alveolar wall", "setting": "[4]", "value": 0}, {"measurement": "Number of animals with grade ++ (moderate): D. Accumulation, foamy/macrophage-like cell, alveolus", "setting": "[4]", "value": 0}, {"measurement": "Number of animals with grade ++ (moderate): E. Cellular infiltration, neutrophil, alveolus", "setting": "[4]", "value": 0}, {"measurement": "Number of animals with grade +++ (severe): A. Hyperplasia, epithelial cell, bronchus", "setting": "[4]", "value": 0}, {"measurement": "Number of animals with grade +++ (severe): B. Cellular exudation, neutrophil/eosinophil, lumen, bronchiole", "setting": "[4]", "value": 0}, {"measurement": "Number of animals with grade +++ (severe): C. Thickening, alveolar wall", "setting": "[4]", "value": 0}, {"measurement": "Number of animals with grade +++ (severe): D. Accumulation, foamy/macrophage-like cell, alveolus", "setting": "[4]", "value": 0}, {"measurement": "Number of animals with grade +++ (severe): E. Cellular infiltration, neutrophil, alveolus", "setting": "[4]", "value": 0}, {"measurement": "Number of animals with grade ± (minimal): A. Hyperplasia, epithelial cell, bronchus", "setting": "[4]", "value": 1}, {"measurement": "Number of animals with grade ± (minimal): B. Cellular exudation, neutrophil/eosinophil, lumen, bronchiole", "setting": "[4]", "value": 1}, {"measurement": "Number of animals with grade ± (minimal): C. Thickening, alveolar wall", "setting": "[4]", "value": 2}]}
